In patent publication US10464963B2, “Compounds from invasive Salvinias and methods of using the same” (STEPHEN F. AUSTIN STATE UNIVERSITY, priority 2013, dated 2019):
Where two headings read alike, the source gives them in different places.

Columns and labels:
[1] = Cytotoxicity assay (WST-8), MRC-5; assay type: cell-based, human; settings: human
Protocol: (§1) PANC-1 and MRC-5 was cultured in complete growth medium according to the ATCC protocols. Cells were grown at 37° C. and 5% CO2 in humidified air.
(§2) Cytotoxicity of total extracts of S. molesta was tested against PANC-1, A549, PC-3, and MRC-5. Cytotoxicity of the fractions was determined using A549 cells, a human non-small lung cancer cell line. Fractions were tested at 25, 50, and 100 μg/mL. The isolated pure compounds were tested in each of the cultured human tumor and normal cell lines at various concentrations between 1 and 100 μM with three replications. Human tumor and normal cells were inoculated into 96 well microtiter plates in 90 μL at plating densities ranging from 5,000 to 40,000 cells/well (measured by Z2 Coulter Counter of Beckman) depending on the doubling time of individual cell lines. Cell growth and viability was measured by WST-8 (Water Soluble Tetrazolium) assays following a standard protocol (Cell Counting Kit-8, Dojindo Molecular, Maryland). The WST-8 assay measured the relative activity of mitochondrial reductase enzymes in viable cells. A control WST reading (T0) before treatment was measured, then cells were continuously exposed to isolates for 48 h. After WST added and incubated for 2 h, the amount of formazan was measured by using a microplate spectrophotometer (μQuant spectrophotometer, Bio-Tek Instruments, Inc., Vermont) at 450 nm. TC or TD represents the readings of the untreated control or with tested compounds. Percent cell-growth (G) and percent cell-growth inhibition (GI) was calculated as: G=(TD−T0/TC−T0)×100; GI=[1−(TD−T0/TC−T0)]×100 for which TD≥T0; and G=(TD−T0/T0)×100; GI=[1−(TD−T0/T0)]×100 for which TD≤T0. […] Cancer drug doxorubicin was used as the positive controls in the cell-based assays.

[2] = system: normal human lung fibroblasts cells (MRC-5); experiment: Cytotoxicity assay (WST-8), MRC-5; assay type: cell-based; settings: for GI50: human, 48 h
Protocol: as §1, §2

[3] = system: human exocrine pancreatic cancer (BxPC-3); experiment: Cytotoxicity assay (WST-8), BxPC-3; assay type: cell-based; settings: Homo sapiens
[4] = system: human non-small cell lung cancer (A549); experiment: Cytotoxicity assay (WST-8), A549; assay type: cell-based; settings: Homo sapiens
Protocol: as §1, §2

[5] = system: human exocrine pancreatic cancer (PANC-1); experiment: Cytotoxicity assay (WST-8), PANC-1; assay type: cell-based; settings: Homo sapiens
Protocol: as §1, §2

human leukemia (HL-60) = experiment: Cytotoxicity assay (WST-8), HL-60; assay type: cell-based; settings: Homo sapiens
[6] = system: human breast cancer (MDA-MB-231); experiment: cells; assay type: cell-based
Source text: Human exocrine pancreatic cancer (PANC-1 and BxPC-3), non-small cell lung cancer (A549), prostate cancer (PC-3), breast cancer (MDA-MB-231), and leukemia (HL-60) were obtained from The University of Texas M. D. Anderson Cancer Center, Houston, Tex., and Normal human lung fibroblasts cells (MRC-5) was purchased from the American Type Culture Collection (ATCC). PC-3, A549 and HL-60 cells were maintained in RPMI 1640 medium supplemented with 10% (v/v) fetal bovine serum and antibiotics (1,000 units/mL penicillin-streptomycin solution, Hyclone). PANC-1 and MRC-5 was cultured in complete growth medium according to the ATCC protocols. Cells were grown at 37° C. and 5% CO2 in humidified air.
Cytotoxicity of total extracts of S. molesta was tested against PANC-1, A549, PC-3, and MRC-5. Cytotoxicity of the fractions was determined using A549 cells, a human non-small lung cancer cell line. Fractions were tested at 25, 50, and 100 μg/mL. The isolated pure compounds were tested in each of the cultured human tumor and normal cell lines at various concentrations between 1 and 100 μM with three replications. Human tumor and normal cells were inoculated into 96 well microtiter plates in 90 μL at plating densities ranging from 5,000 to 40,000 cells/well (measured by Z2 Coulter Counter of Beckman) depending on the doubling time of individual cell lines. Cell growth and viability was measured by WST-8 (Water Soluble Tetrazolium) assays following a standard protocol (Cell Counting Kit-8, Dojindo Molecular, Maryland). The WST-8 assay measured the relative activity of mitochondrial reductase enzymes in viable cells. A control WST reading (T0) before treatment was measured, then cells were continuously exposed to isolates for 48 h. After WST added and incubated for 2 h, the amount of formazan was measured by using a microplate spectrophotometer (μQuant spectrophotometer, Bio-Tek Instruments, Inc., Vermont) at 450 nm. TC or TD represents the readings of the untreated control or with tested compounds. Percent cell-growth (G) and percent cell-growth inhibition (GI) was calculated as: G=(TD−T0/TC−T0)×100; GI=[1−(TD−T0/TC−T0)]×100 for which TD≥T0; and G=(TD−T0/T0)×100; GI=[1−(TD−T0/T0)]×100 for which TD≤T0. To determine the inhibitory potency of active compounds (GI50, 50% cell-growth inhibition), tests were extended to additional concentrations (varying from 0.01 to 100 μM). Cancer drug doxorubicin was used as the positive controls in the cell-based assays.

[7] = system: human prostate cancer (PC-3); experiment: Cytotoxicity assay (WST-8), PC-3; assay type: cell-based; settings: Homo sapiens
Protocol: as §1, §2

[8] = BXPC-3, 48 h, read-out: Cytotoxic activity (GI50) BxPC-3
[9] = BXPC-3, Table 1, read-out: Activity against human exocrine pancreatic tumor BxPC-3 (GI50) (converted)
[10] = A549, 48 h, read-out: Cytotoxic activity (GI50) A549
[11] = A549, Table 1, read-out: Activity against human non-small cell lung tumor A549 (GI50) (converted)
[12] = PANC-1, 48 h, read-out: Cytotoxic activity (GI50) PANC-1
[13] = PANC-1, Table 1, read-out: Activity against human exocrine pancreatic tumor PANC-1 (GI50)
[14] = HL-60, 48 h, read-out: Cytotoxic activity (GI50) HL-60
[15] = 48 h, read-out: Cytotoxic activity (GI50) PC-3
[16] = A549, Table 7, WST-8, 48 h exposure, mean ± S.D., read-out: Cytotoxic activity (GI50) A549
[17] = HL-60, Table 1, read-out: Activity against human leukemia HL-60 (GI50) (converted)
[18] = Table 1, read-out: Activity against human prostate tumor PC-3 (GI50) (converted)
[19] = BXPC-3, Table 7, WST-8, 48 h exposure, mean ± S.D., read-out: Cytotoxic activity (GI50) BxPC-3
[20] = PANC-1, Table 7, WST-8, 48 h exposure, mean ± S.D., read-out: Cytotoxic activity (GI50) PANC-1
[21] = HL-60, Table 7, WST-8, 48 h exposure, mean ± S.D., read-out: Cytotoxic activity (GI50) HL-60
[22] = Table 7, WST-8, 48 h exposure, mean ± S.D., read-out: Cytotoxic activity (GI50) PC-3

Compound | GI50 at 48 h [1] [µM] | Toxicity against normal cell (in words) [2] | GI50 [3, 8] [µM] | GI50 [3, 9] [µM] | GI50 [4, 10] [µM] | GI50 [4, 11] [µM] | GI50 [5, 12] [µM] | GI50 [5, 13] [µM] | GI50 (human leukemia (HL-60); [14]) [µM] | GI50 ([6]; MDA-MB-231, 48 h, read-out: Cytotoxic activity (GI50) MDA-MB-231) [µM] | GI50 ([6]; MDA-MB-231, Table 1, read-out: Activity against human breast tumor MDA-MB-231 (GI50)) [µM] | GI50 [7, 15] [µM] | GI50 [4, 16] [µM] | GI50 (human leukemia (HL-60); [17]) [µM] | GI50 [7, 18] [µM] | GI50 [2] [µM] | GI50 [3, 19] [µM] | GI50 [5, 20] [µM] | GI50 (human leukemia (HL-60); [21]) [µM] | GI50 [7, 22] [µM]
CC(C)c1cc2c(c(O)c1O)[C@@]1(C)CCCC(C)(C)C1=C(O)C2=O [Compound 7, 14-deoxycoleon U] | 24.8 | no toxic against normal cell | 37.3 ± 7.44 | 37.3 | 9.1 ± 2.47 | 9.1 | 22.6 ± 4.18 | 22.6 | 13.3 ± 5.62 | > 100 | > 100 | 8.39 ± 0.86 |  |  |  |  |  |  |  | 
CC(C)c1cc2c(cc1O)[C@@]1(C)CCCC(C)(C)C1=CC2=O [Compound 9, 5,6-dehydrosugiol] | > 100 |  | > 100 |  | 84.5 ± 18.7 | 84.5 | > 100 |  | 92.8 ± 9.98 |  |  | > 100 |  |  |  |  |  |  |  | 
COc1cc2c(cc1C(C)C)C(=O)C(O)=C1C(C)(C)CCC[C@@]12C [Compound 11, montbretyl 12-methyl ether] |  |  |  |  |  | 21.2 |  |  |  |  |  |  | 21.2 ± 6.21 |  |  |  |  |  |  | 
CC(C)c1cc2c(c(O)c1O)[C@@]1(C)CCCC(C)(C)[C@@H]1CC2=O [Compound 12, 11-hydroxysugiol] | 40.2 ± 0.91 |  | 45 ± 8.33 | 45 | 35 ± 6.2 | 35 | 43.1 ± 8.32 | 43.1 | 35.3 ± 0.63 |  |  | 41 ± 7.9 |  | 35.3 | 41 |  |  |  |  | 
CC(C)c1cc2c(cc1O)[C@@]1(C)CCCC(C)(C)[C@@H]1CC2=O [Compound 13, sugiol] |  |  |  |  |  |  |  |  |  |  |  |  | 79.8 ± 2.18 |  |  | > 100 | 36.1 ± 1.5 | 87.9 ± 11.2 | 68.6 ± 13.5 | > 100
CC(C)c1cc2c(cc1O)[C@@]1(C)CCCC(C)(C)[C@@H]1CC2 [Compound 14, ferruginol] |  |  |  |  |  |  |  |  |  |  |  |  | 30.7 ± 5.22 |  |  | 40 ± 7.74 | 21.1 ± 0.51 | 41.1 ± 14.1 | 27.3 ± 8.95 | 56.5 ± 16.5
CC(C)c1cc2c(cc1O)[C@@]1(C)CCCC(C)(C)C1CC2O (stereo partly shown) [Compound 15, 7-hydroxyferruginol] | 70.5 ± 7.21 |  | 74.7 ± 11.1 | 74.7 | 75.1 ± 7.04 | 75.1 | 78.2 ± 13.5 | 78.2 | 75.2 ± 1.02 |  |  | 85.6 ± 5.3 |  | 75.2 | 85.6 |  |  |  |  | 
